# From article PMC11173529, “Structure–Activity Relationship Studies in a Series of Xanthine Inhibitors of SLACK Potassium Channels” (Molecules, 2024)
# Molecular target: T1, human A934T SLACK (Homo sapiens, UniProt Q5JUK3, A915T)
# T1 construct: host or cells: CHO-K1
# T1 sequence (Q5JUK3 1-1235 isoform Q5JUK3-3 A934T): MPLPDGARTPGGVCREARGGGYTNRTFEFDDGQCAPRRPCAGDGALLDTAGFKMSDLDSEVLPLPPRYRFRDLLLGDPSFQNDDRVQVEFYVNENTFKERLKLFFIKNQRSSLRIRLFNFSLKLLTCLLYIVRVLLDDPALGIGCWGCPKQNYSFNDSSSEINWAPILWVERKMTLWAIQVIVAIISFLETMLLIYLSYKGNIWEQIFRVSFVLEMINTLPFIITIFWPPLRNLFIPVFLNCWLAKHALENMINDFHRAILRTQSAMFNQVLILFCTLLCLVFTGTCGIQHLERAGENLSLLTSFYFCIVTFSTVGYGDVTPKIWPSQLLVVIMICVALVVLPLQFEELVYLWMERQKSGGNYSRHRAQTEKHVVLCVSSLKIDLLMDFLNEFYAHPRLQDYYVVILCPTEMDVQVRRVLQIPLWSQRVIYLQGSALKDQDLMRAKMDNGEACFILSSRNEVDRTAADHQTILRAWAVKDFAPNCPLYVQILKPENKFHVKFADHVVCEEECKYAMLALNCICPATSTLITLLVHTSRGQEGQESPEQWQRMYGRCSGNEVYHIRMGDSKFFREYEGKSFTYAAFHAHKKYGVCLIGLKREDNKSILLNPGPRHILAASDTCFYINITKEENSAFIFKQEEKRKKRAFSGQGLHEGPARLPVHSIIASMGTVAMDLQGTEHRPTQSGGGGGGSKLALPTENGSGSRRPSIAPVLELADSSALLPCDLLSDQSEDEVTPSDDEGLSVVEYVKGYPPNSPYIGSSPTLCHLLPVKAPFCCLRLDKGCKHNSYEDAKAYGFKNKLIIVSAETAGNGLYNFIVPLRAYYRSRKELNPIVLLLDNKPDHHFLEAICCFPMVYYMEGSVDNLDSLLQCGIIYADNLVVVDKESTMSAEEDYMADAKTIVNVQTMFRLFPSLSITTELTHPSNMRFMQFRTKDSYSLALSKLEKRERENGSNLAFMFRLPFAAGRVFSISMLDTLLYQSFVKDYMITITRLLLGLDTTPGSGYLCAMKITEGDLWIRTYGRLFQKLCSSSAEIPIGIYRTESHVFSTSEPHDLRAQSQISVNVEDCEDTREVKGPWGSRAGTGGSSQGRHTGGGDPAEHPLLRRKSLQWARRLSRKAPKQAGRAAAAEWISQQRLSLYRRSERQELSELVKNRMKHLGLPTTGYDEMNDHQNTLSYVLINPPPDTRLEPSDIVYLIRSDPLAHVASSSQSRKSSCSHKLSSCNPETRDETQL
# Test: Whole-cell APC in CHO cells stably expressing human A934T SLACK
# Format: cell-based
# Conditions: for IC50: APC, CHO cells; for Imax: maximum inhibition at 30 µM standardized to VU0606170 (100%)
# Excerpt: Development of a useful SLACK inhibitor in vivo tool will require potent activity at the corresponding mouse ortholog as studies in appropriate mouse models will be critical. Thus, we evaluated analogs 32 and 48 in our APC assay using CHO cells stably expressing mouse WT SLACK (Table 6). […] We were also eager to evaluate the same compounds with regard to their ability to inhibit clinically relevant GOF SLACK mutants. Both the C-terminus A934T mutant and transmembrane G288S mutant have been associated with clinical cases of EIMFS [3, 7].
# Stably transfected monoclonal HEK293 cell lines expressing Slick, Maxi-K α1/β3, Maxi-K α1/β4, CaV3.2, GIRK 1/2, KV2.1, KV7.2, NaV1.7, and TASK-1 were generated as previously described. Stably transfected monoclonal HEK293 cell lines expressing hERG were generated as previously described. CHO-K1 cells expressing human Slack and disease-associated human Slack mutations, G288S and A934T, were generated by transfecting a PiggyBac TRE mammalian expression vector (VectorBuilder, Chicago, IL, USA) containing KCNT1. FuGENE 6 (Promega, Madison, WI, USA) transfection reagent and protocol, together with Opti-MEM (Thermo Fisher Scientific, Walkham, MA, USA), were utilized.
# Automated patch-clamp recording was performed with a SyncroPatch 768 PE system (Nanion, Munich, Germany) as previously described. Whole-cell recordings were performed at room temperature. Cells were harvested by first washing with PBS without Mg^2+ or Ca^2+ (Gibco, Billings, MT, USA) to remove cell culture media, followed by dissociation with TryPLE (Gibco, Billings, MT, USA). Cells were then resuspended and diluted to 100,000 cells/mL in external solution. External solution contained 105 mM NaCl, 4 mM KCl, 1 mM MgCl2, 5 mM CaCl2, 10 mM HEPES, and 40 mM N-Methyl-D-glucamine chloride, titrated to pH of 7.4 and osmolarity of 300 mOsm/kg; internal solution contained 70 mM NaCl, 70 mM KF, 10 mM KCl, 5 mM EGTA, and 5 mM HEPES, titrated to a pH of 7.2 and osmolarity of 295 mOsm/kg.
# The APC protocol was set as follows: Cells were held at a […] of −80 mV for 100 ms, then a ramp protocol was performed from −100 mV to 80 mV at 0.4 mV/ms, followed by holding the cell at −80 mV for another 100 ms, then steps were performed at −20 mV, 0 mV, +20 mV, +40 mV, and +60 mV for 100 ms of each step. Whole-cell currents were measured at 0 mV and normalized to current after external buffer addition. […] To obtain the concentration-response relationship graphs and IC50 values, we take the median value of the last 7 current amplitude values obtained for each set of data points collected for a given concentration at a particular step.
IC50 [nM],SMILES,Imax [%]
350,CCCCN(Cc1cccc(F)c1)c1nc2c(c(=O)n(Cc3cccc(OC)c3)c(=O)n2C)n1C [Analog 78],–
1000,COc1cccc(Cn2c(=O)c3c(nc(N(Cc4cccc(F)c4)CC4CC4)n3C)n(C)c2=O)c1 [Analog 79],–
590,CCCCN(Cc1ccc(F)cc1)c1nc2c(c(=O)n(Cc3cccc(OC)c3)c(=O)n2C)n1C [Analog 80],–
1200,COc1cccc(Cn2c(=O)c3c(nc(N(Cc4ccc(F)cc4)CC4CC4)n3C)n(C)c2=O)c1 [Analog 81],–

SMILES,IC50 [nM],Imax [%]
COc1cccc(Cn2c(=O)c3c(nc(N(C)Cc4ccccc4)n3C)n(C)c2=O)c1 [Analog 32],780,99
CN(Cc1cccc(F)c1)c1nc2c(c(=O)n(Cc3ccccc3)c(=O)n2C)n1C [Analog 48],820,100
